Results reported in patent US20140288110A1, “PPAR MODULATORS” (EVOLVA SA, priority 2006, published 2014).

Key:
3T3-L1 / MEFs = assay: Adipocyte differentiation assay, induction, Oil Red O staining; type: cell-based, mouse; set-up: key to Adip.: 0: representing similar results to DPD; −1: representing even less adipocyte differentiation; +1: representing more adipocyte differentiation (both relative to DPD); settings: for Adip.: adipocyte differentiation relative to DPD (SN1), Oil Red O staining; for induction of adipocyte differentiation (red staining), in words: induction assay, Oil Red O
Protocol: This example describes an assay for determining adipocyte differention. Compounds are tested to see whether they induce adipocyte differentiation and also to see whether they inhibit adipocyte differention.
MEFs were grown in AmnioMax basal medium (Gibco) supplemented with 7.5% Amniomax supplement C-100 (Gibco), 7.5% Fetal Bovine Serum (FBS), 2 mM Glutamine, 62.5 μg/ml penicillin and 100 μg/ml Streptomycin (growth medium). At confluence, MEFs were induced to differentiation in growth medium with the addition of 1 microM dexamethasone (Sigma) 0.5 mM isobutylmethylxanthine (Sigma), 5 microg/ml insulin (Sigma) and 10 microM test compound dissolved in DMSO or DMSO alone. Medium was subsequently renewed every 48 hrs with growth media supplemented with 5 microg/ml Insulin and ligand or DMSO.
Briefly, to test compounds as inducers of adipocyte differentiation, 3T3-L1 are grown to confluence in DMEM with 10% Calf serum (CS), typically in 24 well dishes. At 2 days post confluence (day 0), cells are induced to differentiate with DMEM supplemented with 10% fetal bovine serum (FBS), 1 μM dexamethasone and the test compound ([…], 1 and 10 microM). BRL49653 (1.0 μM dissolved in 100% Me2SO) is used as a positive control. After 48 h, the cells are re-fed with DMEM containing 10% FBS supplemented with the test compound or the positive control. From day 4, cells are grown in DMEM with 10% FBS and are changed every second day until day 8. At day 8, cells are stained with Oil Red O as described below.
Cells cultured as described above are used for Oil Red staining. Dishes are washed in PBS and cells were fixed in 3.7% paraformaldehyde for 1 h and stained with oil red O as described in (Hansen et al 1999). Oil red O solution stock solution is prepared by dissolving 0.5 g of Oil Red O (Sigma) in 100 ml of isopropanol. Oil re O working solution is prepared by diluting a stock solution with water (6:4) followed by filtration.
Table II summarizes results obtained with different analogs of DPD (SN1), “0” representing similar results to DPD, “−1” representing even less adipocyte differentiation, “+1” representing more adipocyte differentiation (both relative to DPD) and “−” meaning not assayed.

[1] = tested on: PPARgamma ligand-binding domain (Gal4-PPARgammaLBD); assay: PPARgamma transactivation assay (Gal4-PPARgammaLBD, UASx4-TK luc reporter); type: cell-based; settings: for PPAR: PPARgamma activating activity compared with 10 microM DPD (SN1)
From the text: This is an example of a transactivation assay for determining PPAR gamma modulating activity.
The UASx4-TK-luc reporter construct (where UAS refers to “upstream activator sequence”) contains four Gal4-responsive elements. The plasmid Gal4-PPARgammaLBD encodes a Gal4-DBD-PPARgamma-LBD fusion protein (i.e. the DNA-binding domain, DBD, of Gal4 fused to the ligand-binding domain, LBD, of PPARgamma) capable of transactivating the UASx4-TK-luc reporter plasmid by binding to the UAS. The CMV-beta-galactosidase plasmid (where CMV is cytomegalovirus) is used for normalization of experimental values.
The cells were replated, typically in 24 well plates, so that at the time of transfection the cells are 50-70% confluent.
Briefly, per well in a 24 well plate, UASx4TKluc (0.2 microg) Gal4-PPARgammaLBD (or pM-hPPARgamma-LBD; 0.1 microg) and CMV-beta-galactosidase (0.05 microg) in 30 μL DMEM (free of serum and antibiotics) is mixed with 30 microL DMEM (free of serum and antibiotics) containing 1 microL metafectenein. The mixture is incubated at room temperature for 20 min to allow formation of nucleic acid-lipid complexes and then approximately 60 microL is added to each well containing the 50-60% confluent cells. […] Cells were harvested after 12-24 hours and luciferase and beta-galactosidase activities were measured according to standard protocols.
“−” means that testing was not performed.

mPPARalphaLBD = biological target: T1, mPPARalphaLBD (Mus musculus, UniProt P23204); assay: PPARalpha transactivation assay (mPPARalphaLBD); type: cell-based
T1 construct: expressed in transfected cells
T1 sequence (P23204 239-466 limits assumed): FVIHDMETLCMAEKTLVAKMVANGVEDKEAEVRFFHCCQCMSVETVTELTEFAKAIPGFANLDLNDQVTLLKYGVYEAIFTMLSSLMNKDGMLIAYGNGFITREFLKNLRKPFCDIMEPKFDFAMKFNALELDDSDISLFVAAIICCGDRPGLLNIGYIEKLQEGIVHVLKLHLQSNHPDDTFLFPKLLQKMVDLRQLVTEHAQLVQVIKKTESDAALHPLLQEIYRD
Protocol: This example describes a transactivation assay for determining PPARalpha modulating activity.
DPD and other ligands are tested for their ability to transactivate PPAR alpha essentially as described in Example 1.

O=C(O)CC/C=C\C[C@@H]1COC(c2ccccc2F)O[C@@H]1c1ccccc1O (mixture of isomers) [compound 4]
Adip. (3T3-L1 / MEFs): 0

O=C(O)CC/C=C\C[C@@H]1COC(c2cccc3c2OCO3)O[C@@H]1c1ccccc1O (mixture of isomers) [compound 5]
Adip. (3T3-L1 / MEFs): 0 | PPAR [1]: P−

COc1ccc(Oc2ccccc2C2OC[C@@H](C/C=C\CCC(=O)O)[C@@H](c3ccccc3O)O2)cc1 (mixture of isomers) [compound 7]
Adip. (3T3-L1 / MEFs): 0 | induction of adipocyte differentiation (red staining), in words (3T3-L1 / MEFs): low or no adipocyte differentiation | PPAR gamma modulating activity, in words [1]: higher potency

O=C(O)CC/C=C\C[C@@H]1COC(c2ccccc2-c2ccccc2)O[C@@H]1c1ccccc1O (mixture of isomers) [compound 10]
Adip. (3T3-L1 / MEFs): 0 | PPAR gamma modulating activity, in words [1]: PPAR gamma antagonist | PPAR [1]: Antagonist

COc1cccc([C@H]2OC[C@@H](C/C=C\CCC(=O)O)[C@@H](c3ccccc3O)O2)c1OC (mixture of isomers) [compound 19]
Adip. (3T3-L1 / MEFs): 0

CC(C)(Sc1ccc(CCN(CCCCC2CCCCC2)C(=O)NC2CCCCC2)cc1)C(=O)O [GW7647, reference compound]
increase of PPAR alpha transactivation (mPPARalphaLBD): over 2 fold

O=C(O)CC/C=C\C[C@@H]1CO[C@H](c2ccccc2Cl)O[C@@H]1c1ccccc1O [compound 1]
Adip. (3T3-L1 / MEFs): 0

O=C(O)CC/C=C\C[C@@H]1COC(c2cccc(Cl)c2Cl)O[C@@H]1c1ccccc1O (stereo partly drawn) [compound 2]
Adip. (3T3-L1 / MEFs): 0

O=C(O)CC/C=C\C[C@@H]1COC2(CCCCC2)O[C@@H]1c1ccccc1O [compound 6]
Adip. (3T3-L1 / MEFs): 0

O=C(O)CC/C=C\C[C@@H]1COC2(CCNCC2)O[C@@H]1c1ccccc1O [compound 8]
Adip. (3T3-L1 / MEFs): −1 | PPAR [1]: Boc derivative Inactive

O=C(O)CC/C=C\C[C@@H]1COC(c2cccc3ccccc23)O[C@@H]1c1ccccc1O (stereo partly drawn) [compound 9]
Adip. (3T3-L1 / MEFs): 0

CCCCCC1OC[C@@H](C/C=C\CCC(=O)O)[C@@H](c2ccccc2O)O1 (stereo partly drawn) [compound 11]
Adip. (3T3-L1 / MEFs): +1

C/C=C/CC1OC[C@@H](C/C=C\CCC(=O)O)[C@@H](c2ccccc2O)O1 (stereo partly drawn) [compound 12]
Adip. (3T3-L1 / MEFs): −1

O=C(O)CC/C=C\C[C@@H]1COC(c2coc3ccc(Cl)cc3c2=O)O[C@@H]1c1ccccc1O (stereo partly drawn) [compound 13]
Adip. (3T3-L1 / MEFs): −1 | induction of adipocyte differentiation (red staining), in words (3T3-L1 / MEFs): low or no adipocyte differentiation | PPAR gamma modulating activity, in words [1]: higher potency

COc1ccccc1[C@H]1OC[C@@H](C/C=C\CCC(=O)O)[C@@H](c2ccccc2O)O1 [compound 18]
Adip. (3T3-L1 / MEFs): −1

CC(C)[C@H]1OC[C@@H](C/C=C\CCC(=O)O)[C@@H](c2ccccc2O)O1 [compound 20]
Adip. (3T3-L1 / MEFs): 0

O=C(O)CC/C=C\C[C@@H]1CO[C@H](C2CCCCC2)O[C@@H]1c1ccccc1O [compound 21]
Adip. (3T3-L1 / MEFs): 0

O=C(O)CCC/C=C\C[C@@H]1CO[C@H](c2ccccc2Cl)O[C@@H]1c1ccccc1O [compound 23]
Adip. (3T3-L1 / MEFs): +1

O=C(O)CC/C=C\C[C@@H]1COC(c2ccccc2Cl)O[C@@H]1c1ccccc1O (stereo partly drawn) [compound 27]
PPAR [1]: Inactive

COc1ccccc1[C@H]1O[C@@H](c2c(Cl)cccc2Cl)OC[C@H]1C/C=C\CCC(=O)O [compound 28]
PPAR [1]: Inactive

O=C(O)CCCCCCC[C@@H]1CO[C@H](c2ccccc2Cl)O[C@@H]1c1ccccc1O [compound 31]
Adip. (3T3-L1 / MEFs): 0

CC1(C)OC[C@@H](C/C=C\CCCCC(=O)O)[C@@H](c2ccccc2O)O1 [compound 36]
PPAR [1]: Inactive

COc1ccccc1[C@H]1OC(C)(C)OC[C@H]1C/C=C\CCCCC(=O)O [compound 37]
Adip. (3T3-L1 / MEFs): 0 | PPAR [1]: Inactive

CN(CCOc1ccc(CC2SC(=O)NC2=O)cc1)c1ccccn1 (stereo not drawn) [rosiglitazone, reference compound]
PPAR transactivation, fold higher than with DMSO alone ([1]; Gal4-PPARgammaLBD, DPD at 10 microM): over 40 fold
